Laboratory results published in ChEMBL document CHEMBL1127341, “Synthesis and biological evaluation of 5-[[3,5-bis(1,1-dimethylethyl)- 4-hydroxyphenyl]methylene]oxazoles, -thiazoles, and -imidazoles: novel dual 5-lipoxygenase and cyclooxygenase inhibitors with antiinflammatory activity” (J Med Chem, 1994).

Assays:
Assay type in all cases: functional
[1] = system: Rattus norvegicus; assay: Inhibition of rat carrageenan induced foot-pad edema at a dose of 30 mg/kg on peroral administration; details: route oral
[2] = system: Rattus norvegicus; assay: Inhibition of rat carrageenan induced foot-pad edema at a dose of 10 mg/kg on peroral administration; details: route oral
[3] = system: Rattus norvegicus; assay: 40% inhibition of induced edema in the rat mycobacterium foot-pad edema test

**Q.** With `Cc1ccc(Cl)c(Nc2ccccc2C(=O)[O-])c1Cl.O.[Na+]` [MECLOFENAMATE SODIUM] as the molecule, how does the inhibition in vivo at 30 mg/kg [1] read?
**A.** 41%

**Q.** And the inhibition in vivo at 10 mg/kg [2]?
**A.** 34%

**Q.** What about the ID40 [3] of the same molecule?
**A.** 0.4 mg/kg
